Test results: ChEMBL document CHEMBL2434921, “New synthetic aliphatic sulfonamido-quaternary ammonium salts as anticancer chemotherapeutic agents” (2013)
Calls of active or inactive are those of the source. No cut-off for these calls is given here.

Legend:
PC-3 [1] = assay: Growth of human PC3 cells at 10 uM after 48 hrs by SRB assay; details: PC-3, 48 h
ACHN [2] = assay: Growth of human ACHN cells at 10 uM after 48 hrs by SRB assay
PC-3 [3] = assay: Growth inhibition of human PC3 cells at 1 uM after 48 hrs by SRB assay; values are per cent of control; details: PC-3, 48 h
MDA-MB-231 [4] = assay: Growth of human MDA-MB-231 cells at 10 uM after 48 hrs by SRB assay; details: MDA-MB-231, 48 h
HCT-15 [5] = assay: Growth of human HCT15 cells at 3 uM after 48 hrs by SRB assay; details: HCT-15, 48 h
HCT-15 [6] = assay: Growth of human HCT15 cells at 0.3 uM after 48 hrs by SRB assay; details: HCT-15, 48 h
NUGC-3 [7] = assay: Growth of human NUGC3 cells at 1 uM after 48 hrs by SRB assay; details: NUGC-3, 48 h
NCI-H23 [8] = assay: Growth of human NCI-H23 cells at 10 uM after 48 hrs by SRB assay; details: NCI-H23, 48 h
PC-3 [9] = assay: Growth inhibition of human PC3 cells at 0.3 uM after 48 hrs by SRB assay; values are per cent of control; details: PC-3, 48 h
NCI-H23 [10] = assay: Growth inhibition of human NCI-H23 cells at 1 uM after 48 hrs by SRB assay; values are per cent of control; details: NCI-H23, 48 h
MDA-MB-231 [11] = assay: Growth of human MDA-MB-231 cells at 1 uM after 48 hrs by SRB assay; details: MDA-MB-231, 48 h
NUGC-3 [12] = assay: Growth inhibition of human NUGC3 cells at 3 uM after 48 hrs by SRB assay; values are per cent of control; details: NUGC-3, 48 h
NUGC-3 [13] = assay: Growth inhibition of human NUGC3 cells after 48 hrs by SRB assay; type: functional; details: NUGC-3, 48 h
PC-3 [14] = assay: Growth inhibition of human PC3 cells after 48 hrs by SRB assay; type: functional; details: PC-3, 48 h
ACHN [15] = assay: Growth of human ACHN cells at 0.3 uM after 48 hrs by SRB assay
NCI-H23 [16] = assay: Growth inhibition of human NCI-H23 cells after 48 hrs by SRB assay; type: functional; details: NCI-H23, 48 h
NUGC-3 [17] = assay: Growth of human NUGC3 cells at 0.1 uM after 48 hrs by SRB assay; details: NUGC-3, 48 h
ACHN [18] = assay: Growth of human ACHN cells at 0.1 uM after 48 hrs by SRB assay
NCI-H23 [19] = assay: Growth inhibition of human NCI-H23 cells at 0.1 uM after 48 hrs by SRB assay; values are per cent of control; details: NCI-H23, 48 h
NUGC-3 [20] = assay: Growth of human NUGC3 cells at 0.3 uM after 48 hrs by SRB assay; details: NUGC-3, 48 h
HCT-15 [21] = assay: Growth inhibition of human HCT15 cells at 10 uM after 48 hrs by SRB assay; values are per cent of control; details: HCT-15, 48 h
ACHN [22] = assay: Growth inhibition of human ACHN cells after 48 hrs by SRB assay; type: functional
ACHN [23] = assay: Growth inhibition of human ACHN cells at 3 uM after 48 hrs by SRB assay; values are per cent of control
PC-3 [24] = assay: Growth inhibition of human PC3 cells at 0.1 uM after 48 hrs by SRB assay; values are per cent of control; details: PC-3, 48 h
PC-3 [25] = assay: Growth inhibition of human PC3 cells at 3 uM after 48 hrs by SRB assay; values are per cent of control; details: PC-3, 48 h
HCT-15 [26] = assay: Growth inhibition of human HCT15 cells at 1 uM after 48 hrs by SRB assay; values are per cent of control; details: HCT-15, 48 h
NCI-H23 [27] = assay: Growth inhibition of human NCI-H23 cells at 3 uM after 48 hrs by SRB assay; values are per cent of control; details: NCI-H23, 48 h
HCT-15 [28] = assay: Growth inhibition of human HCT15 cells at 0.1 uM after 48 hrs by SRB assay; values are per cent of control; details: HCT-15, 48 h
MDA-MB-231 [29] = assay: Growth inhibition of human MDA-MB-231 cells at 0.3 uM after 48 hrs by SRB assay; values are per cent of control; details: MDA-MB-231, 48 h
HCT-15 [30] = assay: Growth inhibition of human HCT15 cells after 48 hrs by SRB assay; type: functional
MDA-MB-231 [31] = assay: Growth inhibition of human MDA-MB-231 cells after 48 hrs by SRB assay; type: functional; details: MDA-MB-231, 48 h
NUGC-3 [32] = assay: Growth inhibition of human NUGC3 cells at 10 uM after 48 hrs by SRB assay; values are per cent of control; details: NUGC-3, 48 h
NCI-H23 [33] = assay: Growth of human NCI-H23 cells at 0.3 uM after 48 hrs by SRB assay; details: NCI-H23, 48 h
ACHN [34] = assay: Growth inhibition of human ACHN cells at 1 uM after 48 hrs by SRB assay; values are per cent of control
MDA-MB-231 [35] = assay: Growth of human MDA-MB-231 cells at 0.1 uM after 48 hrs by SRB assay; details: MDA-MB-231, 48 h
MDA-MB-231 [36] = assay: Growth of human MDA-MB-231 cells at 3 uM after 48 hrs by SRB assay; values are per cent of control; details: MDA-MB-231, 48 h

Structure (SMILES) | growth, % of control at 10 µM (PC-3 [1]) | growth, % of control at 10 µM (ACHN [2]) | growth, % of control at 1 µM (PC-3 [3]) | growth, % of control at 10 µM (MDA-MB-231 [4]) | growth, % of control at 3 µM (HCT-15 [5]) | growth, % of control at 0.3 µM (HCT-15 [6]) | growth, % of control at 1 µM (NUGC-3 [7]) | growth, % of control at 10 µM (NCI-H23 [8]) | growth, % of control at 0.3 µM (PC-3 [9]) | growth, % of control at 1 µM (NCI-H23 [10]) | growth, % of control at 1 µM (MDA-MB-231 [11]) | growth, % of control at 3 µM (NUGC-3 [12]) | GI50 (NUGC-3 [13]) | GI50 (PC-3 [14]) | growth, % of control at 0.3 µM (ACHN [15]) | GI50 (NCI-H23 [16]) | growth, % of control at 0.1 µM (NUGC-3 [17]) | growth, % of control at 0.1 µM (ACHN [18]) | GI50 (ACHN [22]) | GI50 (MDA-MB-231 [31]) | other results
CCCCCCCCCCCCCCCCS(=O)(=O)NCC(C)(C)C[N+](C)(C)C | -14.6% | 99.6% | 51.8% | 16.5% | 17.6% | 132% | 33.6% | 0.7% | 102% | 54.1% | 73.6% | 14.7% | 430 nM | 560 nM | 114% | 740 nM | 106% | 122% | 2210 nM | 1520 nM | growth, % of control at 0.1 µM (NCI-H23 [19]): 104%; growth, % of control at 0.3 µM (NUGC-3 [20]): 87.1%; growth, % of control at 10 µM (HCT-15 [21]): 11.7%; growth, % of control at 3 µM (ACHN [23]): 101%; growth, % of control at 0.1 µM (PC-3 [24]): 107%; growth, % of control at 3 µM (PC-3 [25]): 0.2%; growth, % of control at 1 µM (HCT-15 [26]): 46.1%; growth, % of control at 3 µM (NCI-H23 [27]): 26.3%; growth, % of control at 0.1 µM (HCT-15 [28]): 136%; growth, % of control at 0.3 µM (MDA-MB-231 [29]): 95%; GI50 (HCT-15 [30]; HCT-15, 48 h): 560 nM; growth, % of control at 10 µM (NUGC-3 [32]): 3%; growth, % of control at 0.3 µM (NCI-H23 [33]): 102%; growth, % of control at 1 µM (ACHN [34]): 108%; growth, % of control at 0.1 µM (MDA-MB-231 [35]): 95.6%; growth, % of control at 3 µM (MDA-MB-231 [36]): 49.5%
C=CC[N+](C)(C)CCN(C)C(=O)CCCCCCCCCCCCC | – | – | – | – | – | – | – | – | – | – | – | – | 140 nM | 210 nM | – | 240 nM | – | – | 100 nM | 300 nM | GI50 (HCT-15 [30]): inactive
CCCCCCCCCCCCCCCCS(=O)(=O)NCC(C)(C)C[N+](C)(C)CC | -11.1% | 104% | 69.4% | 27.1% | 40.2% | 138% | 43.8% | -10.9% | 99.5% | 50.5% | 88.6% | 18.8% | 570 nM | 790 nM | 100% | 690 nM | 115% | 108% | 2270 nM | 2790 nM | growth, % of control at 0.1 µM (NCI-H23 [19]): 100%; growth, % of control at 0.3 µM (NUGC-3 [20]): 108%; growth, % of control at 10 µM (HCT-15 [21]): 21.3%; growth, % of control at 3 µM (ACHN [23]): 102%; growth, % of control at 0.1 µM (PC-3 [24]): 109%; growth, % of control at 3 µM (PC-3 [25]): 12.9%; growth, % of control at 1 µM (HCT-15 [26]): 63.2%; growth, % of control at 3 µM (NCI-H23 [27]): 30.4%; growth, % of control at 0.1 µM (HCT-15 [28]): 141%; growth, % of control at 0.3 µM (MDA-MB-231 [29]): 103%; GI50 (HCT-15 [30]; HCT-15, 48 h): 1350 nM; growth, % of control at 10 µM (NUGC-3 [32]): 0%; growth, % of control at 0.3 µM (NCI-H23 [33]): 92.1%; growth, % of control at 1 µM (ACHN [34]): 99.6%; growth, % of control at 0.1 µM (MDA-MB-231 [35]): 108%; growth, % of control at 3 µM (MDA-MB-231 [36]): 66%
